Results on 27 compounds are retold here after patent US9045493B2, “Furo[3,2-b]- and thieno[3,2-b]pyridin derivatives” (Merck Patent GmbH, priority 2012, dated 2015).

The target of experiment [1] is T1, TANK binding kinase (TBK1) (Homo sapiens, UniProt Q9UHD2).
T1 sequence (Q9UHD2 1-729): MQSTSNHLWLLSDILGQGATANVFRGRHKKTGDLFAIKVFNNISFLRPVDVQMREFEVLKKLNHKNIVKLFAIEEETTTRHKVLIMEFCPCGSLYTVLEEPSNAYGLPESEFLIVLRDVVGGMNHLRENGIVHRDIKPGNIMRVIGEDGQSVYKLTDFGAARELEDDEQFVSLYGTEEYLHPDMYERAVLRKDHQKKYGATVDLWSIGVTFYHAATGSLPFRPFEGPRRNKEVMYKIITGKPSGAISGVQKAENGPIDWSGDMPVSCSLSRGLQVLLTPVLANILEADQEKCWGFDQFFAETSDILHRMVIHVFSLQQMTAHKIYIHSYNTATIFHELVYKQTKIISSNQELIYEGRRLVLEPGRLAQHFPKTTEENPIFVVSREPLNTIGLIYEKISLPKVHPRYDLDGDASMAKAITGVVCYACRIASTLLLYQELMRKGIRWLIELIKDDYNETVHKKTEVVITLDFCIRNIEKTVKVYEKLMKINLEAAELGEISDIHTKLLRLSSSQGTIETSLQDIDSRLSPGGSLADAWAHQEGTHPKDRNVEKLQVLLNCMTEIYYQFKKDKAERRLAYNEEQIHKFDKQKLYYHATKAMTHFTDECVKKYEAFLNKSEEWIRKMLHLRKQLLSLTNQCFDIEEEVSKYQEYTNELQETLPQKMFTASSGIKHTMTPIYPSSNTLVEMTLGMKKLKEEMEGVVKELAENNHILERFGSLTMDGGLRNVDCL
As to the kind of experiment: TBK1 enzyme assay (384-well Flashplate kinase assay). In kind it is biochemical. The following applies: 10 μM ATP, 120 Min at 30° C. How it is done:
The kinase assay is performed as 384-well Flashplate assay (for e.g. Topcount measurement.
0.6 nM TANK binding kinase (TBK1), 800 nM biotinylated MELK-derived peptide (Biotin-Ah-Ah-[…]) and 10 μM ATP (spiked with 0.25 μCi ^33P-ATP/well) are incubated in a total volume of 50 μl (10 mM MOPS, 10 mM Mg-acetat, 0.1 mM EGTA, 1 mM DTT, 0.02% Brij35, 0.1% BSA, pH 7.5) with or without test compound for 120 Min at 30° C. The reaction is stopped with 25 μl 200 mM EDTA. After 30 Min at room temperature the liquid is removed and each well washed thrice with 100 μl 0.9% sodium chloride solution. Nonspecific reaction is determined in presence of 100 nM Staurosporine. Radioactivity is measured in a Topcount (PerkinElmer). Results (e.g. IC50-values) are calculated with program tools provided by the IT-department (e.g. AssayExplorer, Symyx).

The next experiment has as its target T2, IKKε (Homo sapiens, UniProt Q14164).
T2 sequence (Q14164 1-716): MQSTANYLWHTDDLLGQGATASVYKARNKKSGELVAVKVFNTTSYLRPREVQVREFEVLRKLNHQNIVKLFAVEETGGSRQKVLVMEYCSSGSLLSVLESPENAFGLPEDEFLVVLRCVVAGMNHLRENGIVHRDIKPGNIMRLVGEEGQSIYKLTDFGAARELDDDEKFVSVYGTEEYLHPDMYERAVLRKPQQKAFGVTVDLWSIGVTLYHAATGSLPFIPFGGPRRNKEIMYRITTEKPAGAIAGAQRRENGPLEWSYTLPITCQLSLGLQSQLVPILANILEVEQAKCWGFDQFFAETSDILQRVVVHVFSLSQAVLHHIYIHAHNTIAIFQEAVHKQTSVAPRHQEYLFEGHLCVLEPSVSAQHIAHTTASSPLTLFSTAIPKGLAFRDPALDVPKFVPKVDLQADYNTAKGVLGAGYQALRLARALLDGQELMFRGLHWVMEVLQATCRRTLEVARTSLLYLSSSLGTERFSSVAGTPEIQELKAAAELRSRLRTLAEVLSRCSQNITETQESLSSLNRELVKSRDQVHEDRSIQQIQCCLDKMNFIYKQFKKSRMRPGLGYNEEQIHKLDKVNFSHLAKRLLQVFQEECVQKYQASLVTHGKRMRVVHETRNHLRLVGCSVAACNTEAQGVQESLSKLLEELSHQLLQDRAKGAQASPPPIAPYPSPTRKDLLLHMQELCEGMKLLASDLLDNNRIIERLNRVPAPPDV
As to the kind of experiment: IKKε kinase assay (384-well Flashplate). In kind it is biochemical. The conditions noted are these: 10 μM ATP, 2 hours at 30° C.; read-out: IKKε enzyme assay IC50. As to the method: The kinase assay is performed either as 384-well Flashplate assay (for e.g. Topcount measurement).
1 nM IKKε, 800 nM biotinylated IκBα(19-42) peptide (Biotin-C6-C6-[…]) and 10 μM ATP (spiked with 0.3 μCi ^33P-ATP/well) are incubated in a total volume of 50 μl (10 mM MOPS, 10 mM Mg-acetat, 0.1 mM EGTA, 1 mM Dithiothreitol, 0.02% Brij35, 0.1% BSA, 0.1% BioStab, pH 7.5) with or without test compound for 2 hours at 30° C. The reaction is stopped with 25 μl 200 mM EDTA. After 30 Min at room temperature the liquid is removed and each well washed thrice with 100 μl 0.9% sodium chloride solution. […] Radioactivity is measured with Topcount (PerkinElmer). Results (e.g. IC50-values) are calculated with program tools provided by the IT-department (e.g. AssayExplorer, Symyx).

The IC50 is the concentration at which inhibition is half-maximal. On to `COc1cc(C(=O)N[C@H]2CCCNC2)ccc1-c1cc2nccc(-c3ccc(OC4CCOCC4)c(C#N)c3)c2o1` [Compound A118], for which the IC50 (in experiment [1]; on IKKε) was under 300 nM each time.
Regarding `N#Cc1cc(-c2ccnc3cc(-c4ccc5cn[nH]c5c4)oc23)ccc1OC1CCOCC1` [Compound A71], the figures for the IC50 (in experiment [1]; on IKKε) were 300 to 3000 nM and under 300 nM, respectively.
Consider `COc1cc(-c2cc3nccc(-c4ccc(OC5CCOCC5)c(C#N)c4)c3o2)ccc1C(=O)N1CCNC(=O)C1` [Compound A109], for which the IC50 (in experiment [1]; on IKKε) was under 300 nM each time.
As to `N#Cc1cc(-c2ccnc3cc(-c4ccc(C(=O)NCCN5CCNC5=O)cc4)oc23)ccc1OC1CCOCC1` [Compound A77], the IC50 (in experiment [1]; at IKKε) was under 300 nM throughout.
Take `CN1CCN(C(=O)c2ccc(-c3cc4nccc(-c5ccc(OCC6(C)COC6)c(C#N)c5)c4o3)cc2)CC1` [Compound A61]: the IC50 (in experiment [1]; at IKKε) was under 300 nM in each case.
As for `N#Cc1cc(-c2ccnc3cc(-c4ccc(CN5CCOCC5)s4)oc23)ccc1OC1CCOCC1` [Compound A47], the IC50 (in experiment [1]; on IKKε) was under 300 nM each time.
Regarding `COc1cc(C(=O)N(C)CCO)ccc1-c1cc2nccc(-c3ccc(OC4CCOCC4)c(C#N)c3)c2o1` [Compound A115], the IC50 (in experiment [1]; on IKKε) was under 300 nM each time.
On to `N#Cc1cc(-c2ccnc3cc(-c4cccc(N5CCOCC5)c4)oc23)ccc1OC1CCOCC1` [Compound A2, 5-[2-(3-Morpholin-4-yl-phenyl)-furo[3,2-b]pyridin-7-yl]-2-(tetrahydro-pyran-4-yloxy)-benzonitrile], for which the IC50 (in experiment [1]; on IKKε) was under 300 nM in each case.
For the compound `CCOc1ncccc1-c1cc2nccc(-c3ccc(OC4CCOCC4)c(C#N)c3)c2o1` [Compound A64], the IC50 (in experiment [1]; at IKKε) was under 300 nM in each case.
Take `CN(CCO)C(=O)c1ccc(-c2cc3nccc(-c4ccc(OCC5(C)COC5)c(C#N)c4)c3o2)cc1` [Compound A62]: the IC50 (in experiment [1]; on IKKε) was under 300 nM throughout.
Regarding `COc1cc(-c2cc3nccc(-c4ccc(OC5CCOCC5)c(C#N)c4)c3o2)ccc1C(=O)NC1CCCN(C)C1` (stereo not drawn) [Compound A88], the IC50 (in experiment [1]; on IKKε) was under 300 nM throughout.
On to `CCNC(=O)c1ccc(-c2cc3nccc(-c4ccc(OC5CCOCC5)c(C#N)c4)c3o2)cc1` [Compound A20, 4-{7-[3-cyano-4-(tetrahydro-pyran-4-yloxy)-phenyl]-furo[3,2-b]pyridin-2-yl}-N-ethyl-benzamide], for which the IC50 (in experiment [1]; on IKKε) was 300 to 3000 nM each time.
Regarding `CC(CO)(CO)COc1ccc(-c2ccnc3cc(-c4ccc(C(=O)N5CCNCC5)cc4)oc23)cc1C#N` [Compound A60], the IC50 in experiment [1] was 300 to 3000 nM; at IKKε, under 300 nM.
Turning to `CN1CCN(C(=O)c2ccc(-c3cc4nccc(-c5ccc(OC6CCOCC6)c(C#N)c5)c4s3)cc2)CC1` [Compound A45], the concentration for half-maximal inhibition (IC50) (in experiment [1]; on IKKε) was under 300 nM each time.
For `N#Cc1cc(-c2ccnc3cc(-c4ccc(C(=O)N5CCNC(=O)CC5)cc4)oc23)ccc1OC1CCOCC1` [Compound A86], the IC50 (in experiment [1]; at IKKε) was under 300 nM each time.
With `CCN(CCOC)C(=O)c1ccc(-c2cc3nccc(-c4ccc(OC5CCOCC5)c(C#N)c4)c3o2)cc1` [Compound A3, 4-{7-[3-cyano-4-(tetrahydro-pyran-4-yloxy)-phenyl]-furo[3,2-b]pyridin-2-yl}-N-ethyl-N-(2-methoxy-ethyl)-benzamide], the IC50 (in experiment [1]; at IKKε) was under 300 nM in each case.
With `CN(CCO)C(=O)c1ccc(-c2cc3nccc(-c4ccc(OC5CCOC5)c(C#N)c4)c3o2)cc1` (stereo not drawn) [Compound A63], the IC50 (in experiment [1]; on IKKε) was under 300 nM in each case.
For `COc1cc(-c2cc3nccc(-c4ccc(OC5CCOCC5)c(C#N)c4)c3o2)ccc1C(=O)NCC(N)=O` [Compound A93], the IC50 (in experiment [1]; on IKKε) was under 300 nM in each case.
`CN1CCN(C(=O)c2ccc(-c3cc4nccc(-c5ccc(N6CCCC6)c(C#N)c5)c4o3)cc2)CC1` [Compound A74]: the IC50 (in experiment [1]; at IKKε) was under 300 nM in each case.
Consider `N#Cc1cc(-c2ccnc3cc(-c4ccc(C(=O)N5CCNCC5)cc4)oc23)ccc1N1CCCC1` [Compound A72], for which the IC50 (in experiment [1]; on IKKε) was under 300 nM throughout.
For `COc1ccc(-c2cc3nccc(-c4ccc(OC5CCOCC5)c(C#N)c4)c3o2)cc1` [Compound A7, 5-[2-(4-methoxy-phenyl)-furo[3,2-b]pyridin-7-yl]-2-(tetrahydro-pyran-4-yloxy)-benzonitrile], the IC50 (in experiment [1]; at IKKε) was 300 to 3000 nM throughout.
In the case of `COc1cc(-c2cc3nccc(-c4ccc(OC5CCOCC5)c(C#N)c4)c3o2)ccc1C(=O)N1CCNCC1` [Compound A35, 5-{2-[3-methoxy-4-(piperazin-1-carbonyl)-phenyl]-furo[3,2-b]pyridin-7-yl}-2-(tetrahydro-pyran-4-yloxy)-benzonitrile], the IC50 (in experiment [1]; at IKKε) was under 300 nM each time.
Consider `N#Cc1cc(-c2ccnc3cc(-c4cnn(C5CCN(CCCO)CC5)c4)oc23)ccc1OC1CCOCC1` [Compound A69], for which the IC50 (in experiment [1]; on IKKε) was under 300 nM in each case.
Consider `COc1cc(-c2cc3nccc(-c4ccc(OC5CCOCC5)c(C#N)c4)c3o2)ccc1C(=O)N1CCC(O)CC1` [Compound A101], for which the IC50 (in experiment [1]; on IKKε) was under 300 nM each time.
As to `CCN(C)C(=O)c1ccc(-c2cc3nccc(-c4ccc(OC5CCOCC5)c(C#N)c4)c3o2)cc1` [Compound A24, 4-{7-[3-cyano-4-(tetrahydro-pyran-4-yloxy)-phenyl]-furo[3,2-b]pyridin-2-yl}-N-ethyl-N-methyl-benzamide], the IC50 (in experiment [1]; on IKKε) was under 300 nM in each case.
Regarding `N#Cc1cc(-c2ccnc3cc(-c4cnn(C5CCNCC5)c4)oc23)ccc1OC1CCOCC1` [Compound A36, 4-(4-{7-[3-Cyano-4-(tetrahydro-pyran-4-yloxy)-phenyl]-furo[3,2-b]pyridin-2-yl}-pyrazol-1-yl)-piperidin], the half-maximal inhibitory concentration (IC50) (in experiment [1]; at IKKε) was under 300 nM in each case.
`CN1CCN(C(=O)c2ccc(-c3cc4nccc(-c5ccc(OC6CCOCC6)c(C#N)c5)c4o3)cc2)CC1` [Compound A17, 5-{2-[4-(4-Methyl-piperazine-1-carbonyl)-phenyl]-furo[3,2-b]pyridin-7-yl}-2-(tetrahydro-pyran-4-yloxy)-benzonitrile]: the IC50 (in experiment [1]; at IKKε) was under 300 nM throughout.
